In the first assay the test system is Human immunodeficiency virus 1. Briefly: Concentration required for 50% protection of MT-4 cells against the cytopathic effect of HIV-1. The assay is classed as functional, organism-based. The following applies: Human immunodeficiency virus 1, MT4. (Protection from cytopathic effect is a common read-out in antiviral testing.)
The term IC50 denotes the concentration that inhibits the measured activity by half. Consider `C[C@H]1Cn2c(=O)[nH]c3ccc(N)c(c32)CN1CC1CC1`, for which it took 849 µM to reach half-maximal inhibition (IC50).
In turn, `C[C@H]1Cn2c(=O)[nH]c3cc(N)cc(c32)CN1CC1CC1` returned an IC50 of 60.6 µM.
Still for that read-out and setting: with `CC(=O)Nc1ccc2nc(O)n3c2c1CN(CC1CC1)[C@@H](C)C3` the figure was over 796 µM; with `COc1ccc2c3c1[nH]c(=O)n3C[C@H](C)N(CC=C(C)C)C2`, 6.63 µM.
The same measure, in the same setting: to `CCc1ccc2nc(O)n3c2c1CN(CC=C(C)C)[C@@H](C)C3` belongs over 5.94 µM.
The same measure, in the same setting: to `CC(C)=CCN1Cc2c(C(N)=O)ccc3[nH]c(=O)n(c23)C[C@@H]1C` belongs 6.36 µM; to `C[C@H]1Cn2c(=O)[nH]c3cc(N(C)C)cc(c32)CN1CC1CC1`, 6.65 µM; to `CCC(=CCN1Cc2c(C)ncc3nc(S)n(c23)CC1C)CC` (stereo unspecified), 0.243 µM.
Compound `CCC(=CCN1Cc2c(C)ncc3nc(O)n(c23)CC1C)CC` (stereo unspecified) yielded a half-inhibitory concentration (IC50) of over 2 µM.
Same read-out and setting: to `CC(C)=CCN1Cc2c(I)ccc3[nH]c(=O)n(c23)C[C@@H]1C` belongs 0.088 µM; to `CCC(=CCN1Cc2cc(C(C)(C)C)cc3nc(O)n(c23)C[C@@H]1C)CC`, 0.314 µM.
The same measure, in the same setting: to `CC(C)=CCN1Cc2cc(C(F)(F)F)cc3nc(S)n(c23)C[C@@H]1C` belongs 0.485 µM.
Take `C[C@H]1Cn2c(=O)[nH]c3cc([N+](=O)[O-])cc(c32)CN1CC1CC1`: the IC50 was determined as 33.4 µM.
In turn, `CC(C)=CCN1Cc2c(C#N)ccc3nc(O)n(c23)C[C@@H]1C` displayed a 50% inhibitory concentration (IC50) of 1.14 µM.
Same read-out and setting: to `CC(C)=CCN1Cc2cc(Cl)cc3[nH]c(=S)n(c23)C[C@@H]1C` belongs 0.034 µM.
Still for that read-out and setting: with `CC(C)=CCN1Cc2cc(Cl)c(Cl)c3nc(S)n(c23)C[C@@H]1C` the figure was 0.0255 µM; with `C#Cc1ccc2nc(O)n3c2c1CN(CC=C(C)C)[C@@H](C)C3`, 0.438 µM.
Same read-out and setting: to `C[C@H]1Cn2c(=O)[nH]c3ccc(N(C)C)c(c32)CN1CC1CC1` belongs 6.65 µM; to `CSc1ccc2[nH]c(=S)n3c2c1CN(CC=C(C)C)[C@@H](C)C3`, 0.005 µM; to `CC(C)=CCN1Cc2c(I)ccc3[nH]c(=S)n(c23)C[C@@H]1C`, 0.0474 µM.
The compound `CC(=O)Nc1cc2c3c(c1)[nH]c(=O)n3C[C@H](C)N(CC1CC1)C2` displayed a half-inhibitory concentration (IC50) of 159 µM.
In the case of `COc1ccc2c3c1[nH]c(=S)n3C[C@H](C)N(CC=C(C)C)C2`, the half-maximal inhibitory concentration (IC50) is 4.73 µM.
On the same count and under the same terms, to `CC(C)=CCN1Cc2c(C)ncc3nc(O)n(c23)CC1C` (stereo unspecified) belongs 872 µM; to `CC(C)=CCN1Cc2c(Br)ccc3nc(S)n(c23)C[C@@H]1C`, 0.003 µM.
On the same count and under the same terms, to `Cc1ncc2nc(O)n3c2c1CN(CC1CC1)C(C)C3` (stereo unspecified) belongs 596 µM.
The same measure, in the same setting: with `CCOc1ccc2[nH]c(=S)n3c2c1CN(CC=C(C)C)[C@@H](C)C3` the figure was 0.0959 µM; with `CC(C)=CCN1Cc2ccc(Br)c3nc(S)n(c23)C[C@@H]1C`, 1.07 µM.
In turn, `COc1ccc2[nH]c(=S)n3c2c1CN(CC=C(C)C)[C@@H](C)C3` came in with a half-inhibitory concentration (IC50) of 0.0339 µM.
Still for that read-out and setting: with `CC(C)=CCN1Cc2c(F)ccc3nc(S)n(c23)C[C@@H]1C` the figure was 0.0058 µM; with `CC(C)=CCN1Cc2c(C=O)ccc3nc(S)n(c23)C[C@@H]1C`, 0.188 µM; with `CC(C)=CCN1Cc2c(C)ccc3nc(O)n(c23)C[C@@H]1C`, 0.989 µM.
On the same count and under the same terms, with `CC(C)=CCN1Cc2c(C#N)ccc3nc(S)n(c23)C[C@@H]1C` the figure was 0.0563 µM.
Still for that read-out and setting: with `C#Cc1ccc2nc(S)n3c2c1CN(CC=C(C)C)[C@@H](C)C3` the figure was 0.0296 µM; with `CC(C)=CCN1Cc2c(Br)ccc3nc(O)n(c23)C[C@@H]1C`, 0.0473 µM.
Consider `CC(C)=CCN1Cc2cc(F)cc3nc(S)n(c23)C[C@@H]1C`, for which the half-maximal inhibitory concentration (IC50) turned out to be 0.025 µM.
In the case of `CC(C)=CCN1Cc2cc(C(F)(F)F)cc3nc(O)n(c23)C[C@@H]1C`, inhibition was half-maximal at 5.92 µM (IC50).
Same read-out and setting: with `CC(C)=CCN1Cc2c(C)ccc3nc(S)n(c23)C[C@@H]1C` the figure was 0.0136 µM; with `C[C@H]1Cn2c(=S)[nH]c3cc([N+](=O)[O-])cc(c32)CN1CC1CC1`, 2.45 µM.
On the same count and under the same terms, with `CC(C)=CCN1Cc2c(Cl)ccc3[nH]c(=S)n(c23)C[C@@H]1C` [TIVIRAPINE] the figure was 0.0043 µM; with `Cc1cn([C@H]2C[C@H](N=[N+]=[N-])[C@@H](CO)O2)c(=O)[nH]c1=O` [ZIDOVUDINE], 0.0041 µM.

Another assay relates to MT4. Briefly: Effective concentration of compound required to achieve 50% protection of MT-4 cells against the cytopathic effect of HIV-1. The assay is classed as functional, cell-based. The following applies: Homo sapiens.
`CC(C)=CCN1Cc2cccc3[nH]c(=S)n(c23)C[C@@H]1C` showed a 50% inhibitory concentration (IC50) of 0.044 µM.
